What was measured:
[1] = system: murine bone marrow-derived macrophages; assay: area under cytotoxicity dose-response curve (AUC (% cytotoxicity x dose, relative)); higher = more cytotoxic; conditions: duration: 6 days; dose range: 0.13-80 uM, 8 points
Summary of the method: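 Cytotoxicity is expressed as the area under the dose–response curve from GraphPad Prism version 10. To obtain it, primary murine bone marrow-derived macrophages were incubated for 6 days at 37 °C in 5% CO2 across final concentrations of 80–0.13 μM. Viability came from CellTiter-Glo luminescence, and percent cytotoxicity was normalised to vehicle and positive control wells.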

[2] = system: Mycobacterium tuberculosis CDC1551 (intracellular, in murine BMDM); assay: area under intracellular growth-inhibition dose-response curve (AUC (% inhibition x dose, relative)); higher = more potent; conditions: duration: 6 days; dose range: 0.13-80 uM, 8 points
Summary of the method: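 In 384-well opaque plates, primary murine bone marrow-derived macrophages were infected with luciferase-expressing M. tuberculosis CDC1551 (multiplicity of infection 1, 1 h) 24 h after seeding, then treated for 6 days across final concentrations of 80–0.13 μM. Growth was measured by Bright-Glo luciferin assay, normalised to a reference drug control and the lowest-concentration wells. The reported value is the area under the growth-inhibition dose–response curve from GraphPad Prism.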

Row | Compound | area under cytotoxicity dose-response curve [1] | area under intracellular growth-inhibition dose-response curve [2]
1 | CN(C)c1ccc(Nc2ncnc3ccc(Br)cc23)cc1 | 33.3 | 121
2 | O=C(Nc1ccc(S(=O)(=O)Nc2nccs2)cc1)c1c(F)c(F)c(F)c(F)c1F | 64.8 | 82.5
3 | O=C(N/N=C/c1ccc(O)cc1)c1ccncc1 | 1.59 | 168
4 | O=C(/C=C/c1ccco1)c1ccc(NC(=O)C23CC4CC(CC(C4)C2)C3)cc1 | < 0 | 260
5 | CCCCNC(=S)Nc1ccc2c[nH]nc2c1 | 37.5 | 190
6 | COc1ccc(Cn2c(SCc3ccccc3C)nc3cc(OC)c(OC)cc3c2=N)cc1 | 2.96 | 172
7 | Nc1c2c(nc3sc4c(c13)CCCC4)CCCC2 | 77.7 | 125
8 | COc1c(/C=N/NC(N)=S)c(C)nn1-c1ccccc1 | 32.6 | 194
9 | CCOc1ccc(CCNC(=O)c2ccc3c(=O)[nH]c4c(C(=O)NC(C)C)sc(=S)n4c3c2)cc1 | 10.1 | 225
10 | CCOC(=O)c1oc2nc(C(C)C)c3c(c2c1N)CC(C)(C)OC3 | 80.3 | 124
11 | C/C(=N/NC(=O)c1ccncc1)c1ccc(NC(=O)c2ccccc2)cc1 | 28.2 | 240
12 | CCOc1ccc(-c2c(C)[n+](-c3ccc(OCC)cc3)c3n2CCCCC3)cc1.[O-][Cl+3]([O-])([O-])[O-] | 8.93 | 57.1
13 | Cl.c1ccc(-c2nc(NCCCn3ccnc3)c3oc4ccccc4c3n2)cc1 | 34.7 | 172
14 | O=C(NCc1cccc(Cl)c1)c1cccc(S(=O)(=O)N2CCCCC2)c1 | < 0 | 60.1
15 | CCOc1ccc(OCCCC(=O)NNC(=O)c2ccncc2)cc1 | < 0 | 272
16 | O=C(N/N=C/C=C/c1ccccc1[N+](=O)[O-])c1ccncc1 | 244 | 244
17 | CC(NC(=O)c1cc2ccccc2o1)c1cccs1 (centres undefined) | < 0 | 257
18 | Cc1ccccc1NC(=O)COC(=O)c1cc(S(=O)(=O)N2CCOCC2)ccc1C | 23.2 | 34.5
19 | NC(=S)N/N=C/c1ccc(C(F)(F)F)cc1 | 19.4 | 260
20 | O=c1cc(-c2c(F)c(F)c(F)c(F)c2F)oc2ccccc12 | 11.4 | 122
21 | O=C(NC1CCCCC1)c1ccc([N+](=O)[O-])cc1 | 15.6 | 218
22 | NC(=S)N/N=C/c1ccc(-c2cccc([N+](=O)[O-])c2)o1 | 51.4 | 206
23 | Cc1cc(OCC(=O)N2CCCC2)cc(C)c1Cl | < 0 | 254
24 | O=C(Nc1cccc([N+](=O)[O-])c1)NC1CCCCCCC1 | 14 | 228
25 | COc1ccc(CN(C)C(=O)c2cccc(S(=O)(=O)N3CCCc4ccccc43)c2)c(OC)c1OC | 16.4 | 144
26 | NS(=O)(=O)c1ccc(CCNC(=S)Nc2ccccc2)cc1 | < 0 | 221
27 | NC(=S)N/N=C/c1ccc(OC(=O)c2cccnc2)cc1 | 48 | 262

From the supplement of paper PMC11997997
